In patent publication EP1522308A1, “Use of chlorophyll or analogues for the prevention of cytotoxic effects of dietary heme on the intestinal mucosa” (Stichting Top-Instituut Voedselwetenschappen, priority 2003, dated 2005):

Experiments:
[1] = test system: colonic epithelial cells; assay: In vivo colonic epithelial cell proliferation, [methyl-3H]thymidine incorporation into DNA; parameters: species or system rats
Protocol: About eight-week-old, outbred male Wistar rats (Harlan Horst/WU, SPF) were housed individually in metabolic cages in a room with controlled temperature (± 20°C), relative humidity (50-60%) and a light/dark cycle (6 AM to 6 PM). Animals were acclimatized to housing conditions for 5 days before start of the experiment.
In the first study we tested whether spinach prevents the effect of dietary heme. […] During two weeks, four groups of eight rats were fed purified diets. The control group consumed a diet which contained per kg, 200 g casein, 532 g dextrose, 200 g fat (160 g palm fat and 40 g corn oil), 20 g cellulose and 20 mmol calcium phosphate (CaPO4·2H2O, Fluka Chemie Buchs, Switzerland). […]
After the experimental feeding period of 14 days, we quantified the colon epithelial cell proliferation as DNA-replication, using [methyl-^3H]thymidine incorporation into DNA. […] These homogenates were analyzed for ^3H-thymidine incorporation and for total DNA content. […] A sample (0.5 ml) of the hydrolysate was dissolved in 15 ml Aqua Luma (Lumac-LSC BV., Groningen, The Netherlands) and counted with corrections for quenching on a Beckman LS-7500 liquid scintillation counter. DNA content was determined using the diphenylamine reaction with calf thymus DNA as standard (Sigma) [24].

[2] = test system: colonocytes; assay: Quantification of epithelial (host) DNA in feces by real-time PCR for the β-globin gene; assay type: in vivo, rats
Protocol: Food and demineralised drinking water were supplied ad libitum.
Fecal host DNA content was quantified using DNA extraction and real-time PCR, using rat-specific probe and primers for the β-globin gene. In short, DNA was isolated from 20 mg freeze-dried feces using the QIAamp DNA stool mini kit (Westburg, Leusden, The Netherlands) following the recommendations of the manufacturer for human DNA analysis. […] The standard DNA used for the quantification of the DNA in the feces was isolated from rat spleen, using the Wizard Genomic DNA purification kit (Promega Corporation, Madison, WI, USA). The real-time PCR was performed using the ABI prism 7700 Sequence Detection system (PE Applied Biosystems, Nieuwerkerk a/d IJssel, The Netherlands). Universal Taqman Master Mix and Taqman Exogenous Internal positive Control (IPC) Reagent (Vic ™ probe) were purchased from Applied Biosystems and the Taqman probe containing a 5' FAM labeled fluorescent reporter dye (6-carboxyfluorosein) and a 3' TAMRA quencher dye (6-carboxytetramethylrhodamine) was purchased from Proligo (Paris, France). PCR primers were synthesized by Amersham Pharmacia Biotech Custom DNA Synthesis Service (Roosendaal, The Netherlands). For amplification of host DNA 5 µl of the purified DNA (100-500 ng) was used in a volume of 50 µl, containing 1x Master Mix, 200 nM forward primer (5'-[…]-3'), 200 nM reverse primer (5'-[…]-3'), 100 nM probe (5'-[…]-3'), 1x IPC mix and 1x IPC DNA. The PCR protocol consisted of 2 min 50°C, 10 min 95°C and 40 cycles of 15 sec 95°C and 1 min 62°C.

[3] = test system: human erythrocyte suspension; assay: Cytotoxicity of fecal water, potassium release from erythrocytes (erythrocyte bioassay); assay type: cell-based
Protocol: Fecal water was prepared by reconstituting a small amount of freeze-dried feces with double-distilled water to 20 % dry weight. After homogenizing, samples were incubated for 1 hour in a shaking water bath at 37°C, with mixing every 15 min, followed by centrifugation for 20 min at 13.500 g. The supernatants were collected and centrifuged again at 14.000 g for 2 min. The osmolarity (Osmomat 030-D, Gonotec, Berlin, Germany) of the fecal waters was determined. If osmolarity differed from 300 mOsmol/L, another portion of freeze-dried feces was reconstituted with double-distilled water, adjusting the percentage dry weight to obtain fecal water with an osmolarity of 300 mOsmol/L. The fecal waters were stored at -20°C until further analysis.
(§1) Cytotoxicity of fecal water was quantified by potassium release after incubation with a human erythrocyte suspension as described previously and validated earlier with intestinal epithelial cells. The potassium content of the erythrocytes was measured with an Inductive Coupled Plasma […] Emission Spectrophotometer (ICP-AES, Varian, Mulgrave, Australia) and the cytotoxicity of fecal water was calculated and expressed as a percentage of maximal lysis.

[4] = test system: human erythrocyte suspension; assay: Cytotoxicity of size exclusion chromatography fractions of lipid extracts of pooled fecal water; assay type: cell-based; conditions: chlorophyll study, heme group: high-molecular weight components eluting around 6 min (Figure 6B)
Protocol: as §1
Pooled fecal water from the different treatment groups was first purified, by adding 560 µl water and 2.5 ml diethylether (ether) to 100 µl fecal water, and after vigorous mixing, centrifugation at 1500 g for 5 minutes. The ether phase containing chlorophyll was discarded and the procedure was repeated 2 times. The remaining 660 µl sample was acidified with 60 µl HCl (final HCl concentration 1 M) and further extracted with chloroform / methanol as described earlier. The lipid-containing chloroform phase was obtained after centrifugation (10 min, 1500 g) and evaporated under nitrogen. […] The data was processed and analyzed using Shimadzu software. […] The cytotoxicity of these fractions was determined as described above, after resolubilising the samples in 50 mM NaOH and adjusting to neutral pH and 300 mOsm/L with 3-[N-morpholino]-propanesulfonic acid (MOPS).

[5] = test system: colon mucosa; assay: Total DNA content of colon mucosa scrapings (diphenylamine reaction); assay type: in vivo, rats; conditions: spinach study
Text: After the experimental feeding period of 14 days, we quantified the colon epithelial cell proliferation as DNA-replication, using [methyl-^3H]thymidine incorporation into DNA. We choose this biochemical method because it is the most rapid, specific and quantitative marker of cell replication in vivo. Moreover, we have shown earlier that DNA-replication highly correlates with faecal water cytotoxicity. This substantiates a cause-and-effect relationship that we want to address in the present study. Non-fasted rats were injected i.p. with [methyl-^3H]thymidine (specific activity 925 GBq / mmol; dose 3.7 MBq / kg body weight; Amersham International, Amersham, UK) in 154 mM NaCl. After 2 hours the rats were killed by CO2 inhalation. The colon was removed and opened longitudinally. Colonic contents were removed by rinsing with 154 mM KCl. […] These homogenates were analyzed for ^3H-thymidine incorporation and for total DNA content. […] A sample (0.5 ml) of the hydrolysate was dissolved in 15 ml Aqua Luma (Lumac-LSC BV., Groningen, The Netherlands) and counted with corrections for quenching on a Beckman LS-7500 liquid scintillation counter. DNA content was determined using the diphenylamine reaction with calf thymus DNA as standard (Sigma).

Substance	prevention of heme-induced epithelial hyperproliferation ([1]; chlorophyll study, added to heme diet, 1,2 mmol chlorophyll / kg diet, 14 days (Figure 3))	effect on heme-induced reduction of host DNA in the feces ([2]; chlorophyll study, supplemented to the heme diet (Figure 4))	inhibition of heme-induced increase of cytotoxicity of the fecal water ([3]; chlorophyll study, supplemented to the heme diet, fecal water of rats (Figure 5))	increase in rate of DNA-replication compared with the control group ([1]; spinach study, 0.5 mmol heme / kg diet, 14 days)	host DNA detected in the feces compared to the control diet ([2]; chlorophyll study, 0.5 mmol heme / kg diet, feces of days 11-14 (Figure 4))	exfoliation of colonocytes (rat DNA quantification from faeces) ([2]; summary of examples 1 and 2, dietary heme)	cytotoxicity of collected size exclusion chromatography fractions [4]	decrease of DNA content of the mucosa compared with the other groups ([5]; 0.5 mmol heme / kg diet)	DNA content of the mucosa ([5]; mean ± SEM, n=8 per group)	cytotoxicity of the fecal water compared with the control diet ([3]; chlorophyll study, 0.5 mmol heme / kg diet, fecal water of rats (Figure 5))	increase of cytotoxicity of fecal water compared with the control group ([3]; spinach study, fecal water of rats, 0.5 mmol heme / kg diet)
chlorophyll	completely prevented	totally abolished	completely	–	–	–	–	–	–	–	–
hemin [heme]	–	–	–	50%	strong reduction	inhibited this exfoliation of colonocytes almost completely	very high	20%	4207 µg DNA / g scraping	increase	7 fold
